These results are taken from patent US20240307419A1, “CONFORMATIONALLY-CONSTRAINED INHIBITORS OF 3C OR 3C-LIKE PROTEASES” (priority 2021, published 2024).

The target in data set [1] is SARS-CoV-2 3CLpro (Severe acute respiratory syndrome coronavirus 2 (2019-nCoV) (SARS-CoV-2), UniProt P0DTD1). In words: biochemical. Type of data set: biochemical.
For data set [2], the system named is SARS-CoV-2.
For data set [3], the system named is Huh-7, CRFK, or CCL1 cells.
Data set [4] concerns the target MERS-CoV 3CLpro (Middle East respiratory syndrome-related coronavirus (isolate United Kingdom/H123990006/2012) (MERS-CoV) (Betacoronavirus England 1), UniProt K9N7C7). It is filed as biochemical.
Data set [5] relates to SARS-CoV-2. In words: microbe, parasite or virus in culture. The note with it: Severe acute respiratory syndrome coronavirus 2, Vero C1008, read-out: EC50 against SARS-CoV-2 in Vero E6 cells.
Data set [6] deals with SARS-CoV-2. Description: in vitro. The note with it: African green monkey.
The test system of data set [7] is CRFK cells. To be noted: cat.
Data set [8] has as its system SARS-CoV-2 replicon. In words: microbe, parasite or virus in culture. It is filed as cell-based. The note with it: read-out: EC50, SARS-CoV-2 replicon assay. (Replicon systems follow genome replication, usually without infectious particles.)
Data set [9] deals with SARS-CoV-2 replicon. The note with it: 293T cells, previously reported; read-out: EC50 previously reported with the same system; cited from earlier work.
Data set [10] deals with feline infectious peritonitis virus (FIPV). To be noted: cell culture and naturally infected animals with long term treatment; previously reported; cited from earlier work.
[11] abbreviates: Severe acute respiratory syndrome coronavirus 2, HEK-293T, 30 h.

Structures are written as SMILES. Read-outs that look alike come from different tables or passages of the source.

Chain of MERS-CoV 3CLpro (K9N7C7 3248-3553 limits assumed): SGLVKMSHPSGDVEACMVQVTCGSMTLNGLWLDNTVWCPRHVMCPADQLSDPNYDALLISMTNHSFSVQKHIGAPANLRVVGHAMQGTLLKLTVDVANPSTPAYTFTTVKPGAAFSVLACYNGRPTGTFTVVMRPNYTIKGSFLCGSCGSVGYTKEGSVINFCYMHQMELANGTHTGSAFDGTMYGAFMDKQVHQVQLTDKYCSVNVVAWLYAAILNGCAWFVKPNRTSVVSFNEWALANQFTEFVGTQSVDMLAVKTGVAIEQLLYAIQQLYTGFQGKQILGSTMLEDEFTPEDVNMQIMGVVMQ

The term IC50 denotes the concentration that inhibits the measured activity by half. The EC50 is the concentration that produces a half-maximal response. A word on the CC50: it is the concentration at which the toxic effect on the cells reaches its halfway point. Regarding `CC(C)C[C@H](NC(=O)OC[C@@H]1C[C@@H]2CCC[C@@H](C2)C1)C(=O)N[C@H](C=O)C[C@@H]1CCNC1=O` [Compound 2a, ((1R,3s,5S)-Bicyclo[3.3.1]nonan-3-yl)methyl ((S)-4-methyl-1-oxo-1-(((S)-1-oxo-3-((S)-2-oxopyrrolidin-3-yl)propan-2-yl)amino)pentan-2-yl)carbamate], the concentration for half-maximal inhibition (IC50) in data set [1] (read-out: IC50) is 0.18 ± 0.03 µM. Further, in data set [2], the “EC50 lower than the corresponding IC50 values” was ~4.6 fold and the selectivity indices was found to be 2857. Further, the 50% effective concentration (EC50) in [2] (read-out: EC50 against SARS-CoV-2 in Vero E6 cells) stood at 0.035 µM. The 50% cytotoxic concentration (CC50) in data set [3] is > 100 µM. The same molecule had an IC50 in data set [4] of 0.052 ± 0.001 µM.

As to `CC(C)C[C@H](NC(=O)OCC1C[C@H]2CCC[C@@H](C1)C2)C(=O)N[C@@H](C[C@@H]1CCNC1=O)C(O)S(=O)(=O)[O-].[Na+]` (stereo partly drawn) [Compound 3a, Sodium (2S)-2-((2S)-2-(((((1R,5S)-bicyclo[3.3.1]nonan-3-yl)methoxy)carbonyl)amino)-4-methylpentanamido)-1-hydroxy-3-((S)-2-oxopyrrolidin-3-yl)propane-1-sulfonate], the half-maximal inhibitory concentration (IC50) in data set [1] (read-out: IC50) stood at 0.17 ± 0.02 µM; in [4], 0.049 ± 0.002 µM. Besides, the “EC50 lower than the corresponding IC50 values” in data set [2] is ~4.6 fold. In addition, the CC50 in data set [3] is > 100 µM. In data set [5], the concentration giving a half-maximal response (EC50) is 0.032 µM. Further, the selectivity ratio in data set [6] is 3120.

`CC(C)C[C@H](NC(=O)OC1CC2(CCN(C(=O)OC(C)(C)C)CC2)C1)C(=O)N[C@H](C=O)C[C@H]1CCNC1=O` [Compound 7b, Tert-butyl 2-((((S)-4-methyl-1-oxo-1-(((S)-1-oxo-3-((R)-2-oxopyrrolidin-3-yl)propan-2-yl)amino)pentan-2-yl)carbamoyl)oxy)-7-azaspiro[3.5]nonane-7-carboxylate]: the “IC50 lower than that of compound 1b” value in data set [1] is listed as > 9 fold. Further, in [7], the CC50 is > 100 µM. In [8] (setting [11]), the EC50 is 0.09 µM.

Consider `CC(C)C[C@H](NC(=O)OC1CC2(CCN(C(=O)OC(C)(C)C)CC2)C1)C(=O)N[C@@H](C[C@H]1CCNC1=O)C(O)S(=O)(=O)O` (stereo partly drawn) [Compound 7c, Sodium (2S)-2-((S)-2-((((7-(tert-butoxycarbonyl)-7-azaspiro[3.5]nonan-2-yl)oxy)carbonyl)amino)-4-methylpentanamido)-1-hydroxy-3-((R)-2-oxopyrrolidin-3-yl)propane-1-sulfonate], for which the CC50 in data set [7] was > 100 µM. Also, the concentration giving a half-maximal response (EC50) in data set [8] (setting [11]) worked out at 0.08 µM.

Take `CC(C)C[C@H](NC(=O)OCC1CN(C(=O)OC(C)(C)C)C1)C(=O)N[C@H](C=O)C[C@H]1CCNC1=O` [Compound 14b, Tert-butyl 3-(((((S)-4-methyl-1-oxo-1-(((S)-1-oxo-3-((R)-2-oxopyrrolidin-3-yl)propan-2-yl)amino)pentan-2-yl)carbamoyl)oxy)methyl)azetidine-1-carboxylate]: the CC50 in [7] was > 100 µM. Also, the concentration giving a half-maximal response (EC50) in [8] (setting [11]) was 0.38 µM.

In the case of `CC(C)C[C@H](NC(=O)OCC1CN(C(=O)OC(C)(C)C)C1)C(=O)N[C@@H](C[C@H]1CCNC1=O)C(O)S(=O)(=O)O` (stereo partly drawn) [Compound 14c, Sodium (2S)-2-((S)-2-((((1-(tert-butoxycarbonyl)azetidin-3-yl)methoxy)carbonyl)amino)-4-methylpentanamido)-1-hydroxy-3-((R)-2-oxopyrrolidin-3-yl)propane-1-sulfonate], the 50% inhibitory concentration (IC50) in data set [1] was 0.05 µM. In addition, the CC50 in data set [7] was > 100 µM. In addition, the half-maximal effective concentration (EC50) in [8] (setting [11]) is 0.43 µM.

As to `CC(C)C[C@H](NC(=O)OCc1ccccc1)C(=O)N[C@@H](CC1CCNC1=O)C(O)S(=O)(=O)O` (stereo partly shown) [GC376], the figures for the 50% effective concentration (EC50) in data set [8] and in data set [9] were 0.037 ± 0.01 µM and 0.02 µM, respectively.

For `CC(C)C[C@H](NC(=O)OCc1ccccc1)C(=O)N[C@@H](C[C@@H]1CCNC1=O)C(O)S(=O)(=O)[O-].[Na+]` (stereo partly shown) [GC376], the “barrier to resistance to FIPV” value in [10] is reported as “high barrier to resistance”.
